Results taken from PubChem BioAssay (NCI).
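Five concentrations, 48 hours, 96-well plates. TGI denotes the concentration required for complete inhibition of growth.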

Experiments:
Assay in all cases: NCI anticancer screen, dose series, 48 h
COLO 205 colon = test system: COLO 205 colon
SK-MEL-28 melanoma = test system: SK-MEL-28 melanoma
DU-145 prostate = test system: DU-145 prostate
HOP-92 NSCLC = test system: HOP-92 NSCLC
MCF7 breast = test system: MCF7 breast
HOP-62 NSCLC = test system: HOP-62 NSCLC
HCC-2998 colon = test system: HCC-2998 colon
SW-620 colon = test system: SW-620 colon
MALME-3M melanoma = test system: MALME-3M melanoma
MDA-N = test system: MDA-N
SNB-19 CNS = test system: SNB-19 CNS
NCI/ADR-RES ovarian = test system: NCI/ADR-RES ovarian
TK-10 renal = test system: TK-10 renal
HCT-116 colon = test system: HCT-116 colon
SF-268 CNS = test system: SF-268 CNS
SN12C renal = test system: SN12C renal
CAKI-1 renal = test system: CAKI-1 renal
NCI-H460 lung = test system: NCI-H460 lung
UACC-62 melanoma = test system: UACC-62 melanoma
OVCAR-3 ovarian = test system: OVCAR-3 ovarian
MDA-MB-435 = test system: MDA-MB-435
LOX IMVI melanoma = test system: LOX IMVI melanoma
NCI-H522 lung = test system: NCI-H522 lung
MDA-MB-231 breast = test system: MDA-MB-231 breast
MOLT-4 leukemia = test system: MOLT-4 leukemia
OVCAR-4 ovarian = test system: OVCAR-4 ovarian
OVCAR-5 ovarian = test system: OVCAR-5 ovarian
OVCAR-8 ovarian = test system: OVCAR-8 ovarian
SF-295 CNS = test system: SF-295 CNS
SK-MEL-2 melanoma = test system: SK-MEL-2 melanoma
A498 renal = test system: A498 renal
UACC-257 melanoma = test system: UACC-257 melanoma
T-47D breast = test system: T-47D breast
HT29 colon = test system: HT29 colon
BT-549 breast = test system: BT-549 breast
HS 578T breast = test system: HS 578T breast
HCT-15 colon = test system: HCT-15 colon
786-0 renal = test system: 786-0 renal
CCRF-CEM leukemia = test system: CCRF-CEM leukemia
SK-MEL-5 melanoma = test system: SK-MEL-5 melanoma
PC-3 prostate = test system: PC-3 prostate
HL-60(TB) leukemia = test system: HL-60(TB) leukemia
SR leukemia = test system: SR leukemia
SK-OV-3 ovarian = test system: SK-OV-3 ovarian
A549 NSCLC = test system: A549 NSCLC
ACHN renal = test system: ACHN renal
KM12 colon = test system: KM12 colon
IGROV1 ovarian = test system: IGROV1 ovarian
NCI-H23 lung = test system: NCI-H23 lung
UO-31 renal = test system: UO-31 renal
M14 melanoma = test system: M14 melanoma
EKVX NSCLC = test system: EKVX NSCLC
SF-539 CNS = test system: SF-539 CNS
RXF 393 renal = test system: RXF 393 renal
K-562 leukemia = test system: K-562 leukemia
RPMI-8226 leukemia = test system: RPMI-8226 leukemia
NCI-H226 lung = test system: NCI-H226 lung
U251 CNS = test system: U251 CNS

COC(=O)/C=C(/C(=O)OC)c1c(C)c(C)c2c(C)cc(C)cc(C)c1-2
TGI (COLO 205 colon): > 100 µM | TGI (SK-MEL-28 melanoma): > 100 µM | TGI (DU-145 prostate): > 100 µM | TGI (HOP-92 NSCLC): > 100 µM | TGI (MCF7 breast): > 100 µM | TGI (HOP-62 NSCLC): 81 µM | TGI (HCC-2998 colon): > 100 µM | TGI (SW-620 colon): > 100 µM | TGI (MALME-3M melanoma): > 100 µM | TGI (MDA-N): 4.83 µM | TGI (SNB-19 CNS): > 100 µM | TGI (NCI/ADR-RES ovarian): > 100 µM | TGI (TK-10 renal): > 100 µM | TGI (HCT-116 colon): > 100 µM | TGI (SF-268 CNS): > 100 µM | TGI (SN12C renal): > 100 µM | TGI (CAKI-1 renal): > 100 µM | TGI (NCI-H460 lung): > 100 µM | TGI (UACC-62 melanoma): > 100 µM | TGI (OVCAR-3 ovarian): > 100 µM | TGI (MDA-MB-435): > 100 µM | TGI (LOX IMVI melanoma): > 100 µM | TGI (NCI-H522 lung): 52.3 µM | TGI (MDA-MB-231 breast): > 100 µM | TGI (MOLT-4 leukemia): > 100 µM | TGI (OVCAR-4 ovarian): > 100 µM | TGI (OVCAR-5 ovarian): > 100 µM | TGI (OVCAR-8 ovarian): > 100 µM | TGI (SF-295 CNS): > 100 µM | TGI (SK-MEL-2 melanoma): > 100 µM | TGI (A498 renal): > 100 µM | TGI (UACC-257 melanoma): > 100 µM | TGI (T-47D breast): > 100 µM | TGI (HT29 colon): 34.3 µM | TGI (BT-549 breast): > 100 µM | TGI (HS 578T breast): 62.2 µM | TGI (HCT-15 colon): > 100 µM | TGI (786-0 renal): > 100 µM | TGI (CCRF-CEM leukemia): > 100 µM | TGI (SK-MEL-5 melanoma): > 100 µM | TGI (PC-3 prostate): > 100 µM | TGI (HL-60(TB) leukemia): > 100 µM | TGI (SR leukemia): > 100 µM | TGI (SK-OV-3 ovarian): 76.8 µM | TGI (A549 NSCLC): > 100 µM | TGI (ACHN renal): > 100 µM | TGI (KM12 colon): > 100 µM | TGI (IGROV1 ovarian): > 100 µM | TGI (NCI-H23 lung): > 100 µM | TGI (UO-31 renal): > 100 µM | TGI (M14 melanoma): 37.3 µM | TGI (EKVX NSCLC): > 100 µM | TGI (SF-539 CNS): > 100 µM | TGI (RXF 393 renal): > 100 µM | TGI (K-562 leukemia): > 100 µM | TGI (RPMI-8226 leukemia): > 100 µM | TGI (NCI-H226 lung): 58.9 µM | TGI (U251 CNS): > 100 µM
